From patent US20250064789A1, “KETOAMIDE DERIVATIVES AND PHARMACEUTICAL USES THEREOF” (priority 2022, published 2025)
Where two headings read alike, the source gives them in different places.

Key:
[1] = in vivo; details: male, Sprague-Dawley, rat, po, 10 mg/kg
[2] = target: recombinant SARS-CoV-2 M^pro (Severe acute respiratory syndrome coronavirus 2 (2019-nCoV) (SARS-CoV-2), UniProt P0DTD1); assay: Inhibition of SARS-CoV-2 M^pro enzyme activity (fluorescent substrate assay); format: biochemical; details: inhibition of SARS-CoV-2 M^pro enzyme activity, read-out: IC50

Compound	IC50 ([2]; values in nM)	other results
O=C(CCC1CCC(F)(F)CC1)NCC(=O)N[C@H](Cc1ccccc1)C(=O)C(=O)NCc1ccccn1 [Compound 153]	12 ± 0.6 nM	AUC(0-inf) [1]: 26 ± 0.265 µg·h/mL; AUC(0-t) [1]: 23.5 ± 0.676 µg·h/mL; Cmax [1]: 1.98 ± 0.0977 µg/mL; MRT inf [1]: 7.08 ± 0.25 h; Tmax [1]: 1.67 ± 0.58 h; half-life [1]: 7.14 ± 0.46 h
O=C(NCc1ccccn1)C(=O)[C@@H](Cc1ccccc1)NC(=O)[C@H]1COCCN1C(=O)C1CCC(F)(F)CC1 [Compound 288]	14.6 ± 0.4 nM	AUC(0-inf) [1]: 3.5 ± 1.25 µg·h/mL; AUC(0-t) [1]: 3.49 ± 1.25 µg·h/mL; Cmax [1]: 1.14 ± 0.207 µg/mL; MRT inf [1]: 3.59 ± 0.11 h; Tmax [1]: 0.75 ± 0.43 h; half-life [1]: 3.03 ± 0.36 h
O=C(CN1C(=O)CN(c2ccc(F)c(Cl)c2)C1=O)N[C@H](Cc1ccccc1)C(=O)C(=O)NCc1nccs1 [Compound 519]	32.7 ± 3.1 nM	
O=C(Cc1noc(-c2cc(F)ccc2F)n1)N[C@H](Cc1ccccc1)C(=O)C(=O)NCc1nccs1 [Compound 520]	161.3 ± 1.2 nM	
O=C(Cc1noc(-c2ccc(Cl)cc2F)n1)N[C@H](Cc1ccccc1)C(=O)C(=O)NCc1nccs1 [Compound 521]	441 ± 4.5 nM	
O=C(CN1C(=O)CN(c2cc(F)c(F)c(F)c2)C1=O)N[C@H](Cc1ccccc1)C(=O)C(=O)NCc1nccs1 [Compound 522]	74.7 ± 4.2 nM	
O=C(CN1C(=O)CN(c2cc(F)cc(F)c2)C1=O)N[C@H](Cc1ccccc1)C(=O)C(=O)NCc1nccs1 [Compound 523]	123 ± 5.1 nM	
O=C(Cc1noc(-c2ccc(F)c(C(F)(F)F)c2)n1)N[C@H](Cc1ccccc1)C(=O)C(=O)NCc1nccs1 [Compound 524]	32.8 ± 3.2 nM	
O=C(CN1C(=O)CN(c2ccc(F)cc2)C1=O)N[C@H](Cc1ccccc1)C(=O)C(=O)NCc1nccs1 [Compound 525]	84.5 ± 1.8 nM	
O=C(Cc1noc(-c2ccc(F)c(Cl)c2)n1)N[C@H](Cc1ccccc1)C(=O)C(=O)NCc1nccs1 [Compound 526]	28.4 ± 1.5 nM	
O=C(CN1C(=O)CN(c2cccc(Cl)c2)C1=O)N[C@H](Cc1ccccc1)C(=O)C(=O)NCc1nccs1 [Compound 527]	44.3 ± 1.1 nM	
CC(C)(C(=O)N[C@H](Cc1ccccc1)C(=O)C(=O)NCc1nccs1)n1cc(-c2cccc(F)c2)cn1 [Compound 528]	50.8 ± 1 nM	
CC(C)(C(=O)N[C@H](Cc1ccccc1)C(=O)C(=O)NCc1nccs1)n1cc(-c2cccc(OC(F)(F)F)c2)cn1 [Compound 529]	224.5 ± 1.3 nM	
O=C(Cn1nc(-c2ccc(F)cc2)cc1C(F)(F)F)N[C@H](Cc1ccccc1)C(=O)C(=O)NCc1nccs1 [Compound 530]	32.5 ± 1.1 nM	
O=C(NCc1nccs1)C(=O)[C@@H](Cc1ccccc1)NC(=O)n1nc(C(F)(F)F)cc1-c1ccc(F)cc1 [Compound 531]	598 ± 2.8 nM	
O=C(Cn1cc(-c2ccccc2F)nn1)N[C@H](Cc1ccccc1)C(=O)C(=O)NCc1nccs1 [Compound 532, (R)-3-(2-(4-(2-fluorophenyl)-1H-1,2,3-triazol-1-yl)acetamido)-2-oxo-4-phenyl-N-(thiazole-2-ylmethyl)butyramide]	624.5 ± 2.6 nM	
O=C(Cc1noc(C2CCC(F)(F)CC2)n1)N[C@H](Cc1ccccc1)C(=O)C(=O)NCc1nccs1 [Compound 533]	69 ± 6.9 nM	
CC[C@@H](NC(=O)C1CCC(F)(F)CC1)C(=O)N[C@H](Cc1ccccc1)C(=O)C(=O)NCc1nccs1 [Compound 535]	35.7 ± 0.17 nM	
CC(C)[C@@H](NC(=O)C1CCC(F)(F)CC1)C(=O)N[C@H](Cc1ccccc1)C(=O)C(=O)NCc1nccs1 [Compound 536]	24.8 ± 0.3 nM	
CC(C)(NC(=O)C1CCC(F)(F)CC1)C(=O)N[C@H](Cc1ccccc1)C(=O)C(=O)NCc1nccs1 [Compound 537]	89.5 ± 1.5 nM	
O=C(NCc1nccs1)C(=O)[C@@H](Cc1ccccc1)NC(=O)C1(NC(=O)C2CCC(F)(F)CC2)CC1 [Compound 538]	33.5 ± 1.5 nM	
O=C(NCc1nccs1)C(=O)[C@@H](Cc1ccccc1)NC(=O)C1(NC(=O)C2CCC(F)(F)CC2)CCC1 [Compound 539]	21.8 ± 0.5 nM	
O=C(NCc1nccs1)C(=O)[C@@H](Cc1ccccc1)NC(=O)C1(NC(=O)C2CCC(F)(F)CC2)CC(F)(F)C1 [Compound 540]	26.9 ± 0.1 nM	
O=C(NCc1nccs1)C(=O)[C@@H](Cc1ccccc1)NC(=O)C1(NC(=O)C2CCC(F)(F)CC2)CCCC1 [Compound 541]	51.8 ± 1.4 nM	
O=C(NCc1nccs1)C(=O)[C@@H](Cc1ccccc1)NC(=O)C1(NC(=O)C2CCC(F)(F)CC2)CCCCC1 [Compound 542]	52.4 ± 7 nM	
O=C(NCc1nccs1)C(=O)[C@@H](Cc1ccccc1)NC(=O)[C@H](NC(=O)C1CCC(F)(F)CC1)C1CC1 [Compound 543]	107 ± 1.3 nM	
COC[C@@H](NC(=O)C1CCCC(F)(F)C1)C(=O)N[C@H](Cc1ccccc1)C(=O)C(=O)NCc1cscn1 (some centres unmarked) [Compound 544]	22.5 ± 0.9 nM	

Compound	IC50 ([2]; values in nM)	other results
O=C(NCc1nccs1)C(=O)[C@@H](Cc1ccccc1)NC(=O)C1(NC(=O)C2CCCC(F)(F)C2)CC(F)(F)C1 (some centres unmarked) [Compound 545]	26.9 ± 0.2 nM	
O=C(NCc1nccs1)C(=O)[C@@H](Cc1ccccc1)NC(=O)C1(NC(=O)C2CCC(F)(F)C2)CC(F)(F)C1 (some centres unmarked) [Compound 546]	71.7 ± 7.1 nM	
O=C(CC1CC(F)(F)C1)NC1(C(=O)N[C@H](Cc2ccccc2)C(=O)C(=O)NCc2nccs2)CC(F)(F)C1 [Compound 547]	25.1 ± 1 nM	
COC[C@@H](NC(=O)N1CCCC(F)(F)C1)C(=O)N[C@H](Cc1ccccc1)C(=O)C(=O)NCc1nccs1 [Compound 548]	410.4 ± 1 nM	
COC[C@@H](NC(=O)NC1CC(F)(F)C1)C(=O)N[C@H](Cc1ccccc1)C(=O)C(=O)NCc1nccs1 [Compound 549]	21.2 ± 0.6 nM	
COC[C@@H](NC(=O)NC1CCC(F)(F)CC1)C(=O)N[C@H](Cc1ccccc1)C(=O)C(=O)NCc1nccs1 [Compound 551]	23.3 ± 3.1 nM	
COC[C@@H](NC(=O)N1CC(F)(F)C(F)(F)C1)C(=O)N[C@H](Cc1ccccc1)C(=O)C(=O)NCc1nccs1 [Compound 552]	200.9 ± 1.6 nM	
COC[C@@H](NC(=O)OC1CC(F)(F)C1)C(=O)N[C@H](Cc1ccccc1)C(=O)C(=O)NCc1nccs1 [Compound 553]	18.8 ± 4.6 nM	
C[C@@H](NCC1CCC(F)(F)CC1)C(=O)N[C@H](Cc1ccccc1)C(=O)C(=O)NCc1nccs1 [Compound 554]	890.1 ± 1.3 nM	
O=C(NCc1nccs1)C(=O)[C@@H](Cc1ccccc1)NC(=O)C1CC1C(=O)NC1CC(F)(F)C1 (some centres unmarked) [Compound 555]	477.3 ± 4.1 nM	
CC1(C)C(C(=O)NC2CC(F)(F)C2)C1C(=O)N[C@H](Cc1ccccc1)C(=O)C(=O)NCc1nccs1 (some centres unmarked) [Compound 556]	203.5 ± 0.6 nM	
COC[C@@H](NC(=O)C1CCCC(F)(F)C1)C(=O)N[C@H](Cc1ccccc1)C(=O)C(=O)NCc1ccccn1 (some centres unmarked) [Compound 557]	26.1 ± 0.4 nM	
COC[C@@H](NC(=O)C1CCCC(F)(F)C1)C(=O)N[C@H](Cc1ccccc1)C(=O)C(=O)NCc1nnc(C)o1 (some centres unmarked) [Compound 559]		IC50 ([2]; values given in μM): > 2500 nM
COC[C@@H](NC(=O)C1CCCC(F)(F)C1)C(=O)N[C@H](Cc1ccccc1)C(=O)C(=O)NCc1cocn1 (some centres unmarked) [Compound 560]	22.1 ± 0.7 nM	
COC[C@@H](NC(=O)C1CCCC(F)(F)C1)C(=O)N[C@H](Cc1ccccc1)C(=O)C(=O)NCc1ncon1 (some centres unmarked) [Compound 562]		IC50 ([2]; values given in μM): > 2500 nM
COC[C@@H](NC(=O)C1CCCC(F)(F)C1)C(=O)N[C@H](Cc1ccccc1)C(=O)C(=O)NCc1ncno1 (some centres unmarked) [Compound 563]		IC50 ([2]; values given in μM): > 2500 nM
COC[C@@H](NC(=O)C1CCCC(F)(F)C1)C(=O)N[C@H](Cc1ccccc1)C(=O)C(=O)NCc1ncsn1 (some centres unmarked) [Compound 564]	774 ± 8.8 nM	
COC[C@@H](NC(=O)C1CCCC(F)(F)C1)C(=O)N[C@H](Cc1cccc(Cl)c1)C(=O)C(=O)NCc1nccs1 (some centres unmarked) [Compound 566]	33.2 ± 2.3 nM	
O=C(NCc1nccs1)C(=O)[C@@H](Cc1ccccc1)NC(=O)[C@@H](CO)NC(=O)C1CCCC(F)(F)C1 (some centres unmarked) [Compound 567]	63.6 ± 2.9 nM	
CS(=O)(=O)CC[C@@H](NC(=O)C1CCCC(F)(F)C1)C(=O)N[C@H](Cc1ccccc1)C(=O)C(=O)NCc1nccs1 (some centres unmarked) [Compound 568]	70.7 ± 1.8 nM	
CS(=O)(=O)CC[C@@H](NC(=O)CC1CC(F)(F)C1)C(=O)N[C@H](Cc1ccccc1)C(=O)C(=O)NCc1nccs1 [Compound 569]	18.8 ± 0.9 nM	
O=C(NCc1nccs1)C(=O)[C@@H](Cc1ccccc1)NC(=O)[C@@H](CO)NC(=O)C1CCCC(F)(F)C1 (some centres unmarked) [Compound 570]	40.6 ± 2 nM	
O=C(O)C[C@@H](NC(=O)CC1CC(F)(F)C1)C(=O)N[C@H](Cc1ccccc1)C(=O)C(=O)NCc1nccs1 [Compound 572]	33.8 ± 2.5 nM	
COC(=O)C[C@@H](NC(=O)CC1CC(F)(F)C1)C(=O)N[C@H](Cc1ccccc1)C(=O)C(=O)NCc1nccs1 [Compound 574]	14.4 ± 0.8 nM	
CNC(=O)C[C@@H](NC(=O)CC1CC(F)(F)C1)C(=O)N[C@H](Cc1ccccc1)C(=O)C(=O)NCc1nccs1 [Compound 575]	23.5 ± 0.9 nM	
(R)-3-((R)-2-(benzyloxy)propionamido)-N-((5-chloropyridin-2-yl)methyl)-4-(4-fluorophenyl)-2-oxobutyramide [Compound 52]	44.2 ± 3.4 nM	
